Legend:
[1] = tested on: fetal rat dorsal root ganglion-derived established neuronal cell line ND15; test: Repair effect on cisplatin-induced cell damage (cell viability), post-treatment; assay type: cell-based; details: ND15 cells, 24 hours cisplatin, then 2 hours post-treatment with compound 1 at 0.5, 5 or 50 μM
Experimental: A fetal rat dorsal root ganglion-derived established neuronal cell line ND15 was cultured in 10% FBS-containing DMEM. On the next day, the cells were cultured in 10% FBS-containing DMEM containing EC23 (10 μM, Reinner) for 8 days, for differentiation into neurons.
For measurement of cell viability, the medium was exchanged with DMEM/F12 medium containing alamarBlue (Invitrogen), followed by 2 hours of culture, and then the absorbance at wavelength of 570 nm and the absorbance at wavelength of 595 nm were measured. Cell viability was calculated using the ratio of the absorbance at wavelength of 570 nm to the absorbance at wavelength of 595 nm and the untreated group designated as 100%.
In a manner similar to Example 1, cell damage was induced to a fetal rat dorsal root ganglion-derived established neuronal cell line ND15 by the use of cisplatin, and then the cell viability was measured. After 24 hours of treatment with cisplatin, compound 1 was contained in a medium for 2 hours of treatment (final concentration of 0.5, 5 or 50 μM). Groups were composed of 6 groups: an untreated group; a 50 μM compound 1 treatment group; a cisplatin treatment group; a cisplatin and 0.5 μM compound 1 treatment group; a cisplatin and 5 μM compound 1 treatment group; and a cisplatin and 50 μM compound 1 treatment group.

[2] = tested on: rat experimental autoimmune neuritis (EAN) model; test: Rat experimental autoimmune neuritis (EAN) model: clinical scores, body weight, histopathology; assay type: in vivo
Experimental: A method of preparing EAN model rats is as described below. Peripheral myelin protein P2 peptide 57-81 (synthesized at Toray Research Center, Inc.) was dissolved in physiological saline (Otsuka Pharmaceutical Factory, Inc.) to prepare a 2 mg/mL solution. The solution and 2 mg/mL complete Freund's adjuvant (Difco Laboratories) containing killed Mycobacterium tuberculosis H37Ra were mixed in equal amounts, thereby preparing an emulsion which was a peptide solution for administration. The peptide solution for administration (200 μL) was administered subcutaneously to the base of the tail of each Lewis rat (6 to 7 weeks old, male; CHARLES RIVER LABORATORIES JAPAN, INC.) under anesthesia, thereby preparing the EAN model. The day of administration of the peptide was designated as day 0 after induction of pathological conditions.
Clinical scores were evaluated as follows: 0=no symptom, 1=limp tail or hind limb weakness, 2=limp tail and hind limb weakness, 3=partial hind limb paralysis, 4=complete hind limb paralysis, 5=moribund state or death. Weighing was also performed.
Compound 1 (20 mg/kg) was dissolved in distilled water (Otsuka Pharmaceutical Factory, Inc.) and then the solution was orally administered to the EAN model twice a day (administration was started on day 10 after induction of pathological conditions). As a control, distilled water was orally administered to the EAN model. Groups were composed of 2 groups: a solvent administration group (vehicle group); and a compound 1 administration group.
For histopathological evaluation, on day 17 after induction of pathological conditions, the sciatic nerve and the tibial nerve were isolated, and then immersed in a 10% formalin neutral buffer solution. Specimens were sliced and then subjected to hematoxylin-eogin staining, Kliiver-Barrera staining (double staining of Luxol Fast Blue staining and Nissl staining) and immunostaining (IbaI, CD3, NFP and MBP). Specimens were observed under an optical microscope, and then the presence or the absence of T cell and macrophage infiltration, and degeneration of myelin sheaths and axons were evaluated.

[3] = 20 mg/kg oral twice a day, day 17, n = 3

## CN(C)C1CCN(C(=O)C[C@H](O)c2nccn2C)CC1 [Compound 1, (S)-1-(4-(dimethylamino)piperidin-1-yl)-3-hydroxy-3-(1-methyl-1H-imidazol-2-yl)propan-1-one]
[1]
  cell viability (decrease caused by cisplatin): suppressed decrease
[2]; 20 mg/kg oral twice a day from day 10 after induction
  body weight loss: no body weight loss was induced
[2]; 20 mg/kg oral twice a day from day 10 after induction, vs vehicle group
  clinical scores: Increases in clinical scores were suppressed
[2]; [3]
  number of animals with T cell infiltration, sciatic nerve: 1/3
  number of animals with T cell infiltration, tibial nerve: 0/3
  number of animals with axonal degeneration, sciatic nerve: 0/3
  number of animals with axonal degeneration, tibial nerve: 0/3
  number of animals with macrophage infiltration, sciatic nerve: 1/3
  number of animals with macrophage infiltration, tibial nerve: 0/3
  number of animals with myelin sheath degeneration, sciatic nerve: 0/3
  number of animals with myelin sheath degeneration, tibial nerve: 0/3
